How the values were obtained:
Format in all cases: in vivo
Phytophthora infestans = assay: whole plant or invertebrate; details: for control value (Test 1): tomato late blight, control value vs untreated section; for pest or weed control at 4 µg/mL: Phytophthora infestans, in Solanum lycopersicum, 96 h, read-out: control value (Test 1)
[1] = tested on: Pseudoperonospora cubensis; assay: Test 2: control effect against cucumber downy mildew; details: control value vs untreated section; for pest or weed control at 4 µg/mL: Pseudoperonospora cubensis, 120 h
Experimental: (§1) A 10% wettable powder created according to the Pharmaceutical Formulation Example 1 was diluted with a Tween20 solution prepared to a concentration of 1/5000, then the compound of formula [1] was prepared to a concentration of 4 ppm. Further, the compound of formula [1] in Test 4 was adjusted to a concentration of 1,000 ppm.
<Test 2 Test of Control Effect Against Cucumber Downy Mildew>
(§2) Test suspension was applied to cucumber at the 2 leaf stage (species: Sagami hanjiro) in an amount of 20 ml per seedling. One day after application, zoospore suspension of Pseudoperonospora cubensis adjusted to a concentration of 1.0×10^4 units/ml was misted/inoculated, and the seedlings were incubated in a moist chamber adjusted to 22° C. for 16 hr. Then, the onset of the disease was induced in the chamber, and the lesion area rate on the leaves 5 days after inoculation was investigated to compute the control value using the formula below. control value={1−onset area rate of the leaves that were applied the test agent/onset area rate of untreated leaves}×100 Computational formula of the control value: […]

Plasmopara viticola = assay: Test 3: control effect against grape downy mildew; details: control value vs untreated section; for pest or weed control at 4 µg/mL: Plasmopara viticola, 120 h
Experimental: as §1
<Test 3 Test of Control Effect Against Grape Downy Mildew>
as §2, with “grape seedling” for “cucumber at the 2 leaf stage”, “Neomuscat)” for “Sagami hanjiro)”, “Plasmopara viticola” for “Pseudoperonospora cubensis”

COc1ccc(OS(C)(=O)=O)c2c1COC(c1csc(C3CCN(C(=O)Cc4cc(Cl)ccc4Cl)CC3)n1)OC2 (stereo not drawn) [Compound 2-26]
control value (Test 1) (Phytophthora infestans): 100 | control value (Test 2) [1]: 100 | control value (Test 3) (Plasmopara viticola): 100

CS(=O)(=O)Oc1ccc2c(c1)COC(c1csc(C3CCN(C(=O)Cc4cc(Cl)ccc4Cl)CC3)n1)OC2 (stereo not drawn) [Compound 2-49]
control value (Test 1) (Phytophthora infestans): 100 | control value (Test 2) [1]: 0 | control value (Test 3) (Plasmopara viticola): 100

CS(=O)(=O)Oc1cccc2c1COC(c1csc(C3CCN(C(=O)Cn4nc(C(F)F)cc4C(F)F)CC3)n1)OC2 (stereo not drawn) [Compound 1-38, 4-[4-(6-methylsulfonyloxy-1,5-dihydro-3H-2,4-benzodioxepin-3-yl)-2-thiazolyl]-1-[2-[3,5-bis(difluoromethyl)-1H-pyrazole-1-yl]acetyl]piperidine]
pest or weed control at 4 µg/mL (Phytophthora infestans): 100% | pest or weed control at 4 µg/mL [1]: 100% | pest or weed control at 4 µg/mL (Plasmopara viticola): 100%

CS(=O)(=O)Oc1cccc2c1COC(c1csc(C3CCN(C(=O)Cn4nc(C(F)(F)F)cc4C(F)(F)F)CC3)n1)OC2 (stereo not drawn) [Compound 1-42, 4-[4-(6-methylsulfonyloxy-1,5-dihydro-3H-2,4-benzodioxepin-3-yl)-2-thiazolyl]-1-[2-[3,5-bis(trifluoromethyl)-1H-pyrazole-1-yl]acetyl]piperidine]
pest or weed control at 4 µg/mL (Phytophthora infestans): 100% | pest or weed control at 4 µg/mL [1]: 100% | pest or weed control at 4 µg/mL (Plasmopara viticola): 100%

Cc1cc(C(F)(F)F)nn1CC(=O)N1CCC(c2nc(C3OCc4c(O)ccc(F)c4CO3)cs2)CC1 (stereo not drawn) [Compound 1-161]
control value (Test 1) (Phytophthora infestans): 100 | control value (Test 2) [1]: 100 | control value (Test 3) (Plasmopara viticola): 100

Cc1cc(C(F)(F)F)nn1CC(=O)N1CCC(c2nc(C3OCc4c(Cl)ccc(OS(C)(=O)=O)c4CO3)cs2)CC1 (stereo not drawn) [Compound 1-102]
control value (Test 1) (Phytophthora infestans): 100 | control value (Test 2) [1]: 100 | control value (Test 3) (Plasmopara viticola): 100

Cc1cc(C(F)(F)F)nn1CC(=O)N1CCC(c2nc(C3OCc4c(Cl)ccc(OS(C)(=O)=O)c4CO3)cs2)CC1 (stereo not drawn) [Compound 1-65]
control value (Test 1) (Phytophthora infestans): 100 | control value (Test 2) [1]: 100 | control value (Test 3) (Plasmopara viticola): 100

Cc1cccc2c1COC(c1csc(C3CCN(C(=O)Cn4nc(C(F)(F)F)cc4C)CC3)n1)OC2 (stereo not drawn) [Compound 1-14]
control value (Test 1) (Phytophthora infestans): 100 | control value (Test 2) [1]: 100 | control value (Test 3) (Plasmopara viticola): 100

Cc1ccc(C)c(CC(=O)N2CCC(c3nc(C4OCc5c(Br)ccc(OS(C)(=O)=O)c5CO4)cs3)CC2)c1 (stereo not drawn) [Compound 2-33]
control value (Test 1) (Phytophthora infestans): 20 | control value (Test 2) [1]: 100 | control value (Test 3) (Plasmopara viticola): 100

Cc1ccc(C)c(CC(=O)N2CCC(c3nc(C4OCc5cccc(OC(F)F)c5CO4)cs3)CC2)c1 (stereo not drawn) [Compound 2-47]
control value (Test 1) (Phytophthora infestans): 100 | control value (Test 2) [1]: 100 | control value (Test 3) (Plasmopara viticola): 100

O=C(Cn1nc(C(F)F)cc1C(F)F)N1CCC(c2nc(C3OCc4ccc(C(F)(F)F)cc4CO3)cs2)CC1 (stereo not drawn) [Compound 1-60]
control value (Test 1) (Phytophthora infestans): 100 | control value (Test 2) [1]: 100 | control value (Test 3) (Plasmopara viticola): 100

O=C(Cn1nc(C(F)F)cc1C(F)F)N1CCC(c2nc(C3OCc4ccc(Br)cc4CO3)cs2)CC1 (stereo not drawn) [Compound 1-99]
control value (Test 1) (Phytophthora infestans): 100 | control value (Test 2) [1]: 100 | control value (Test 3) (Plasmopara viticola): 100

Cc1cc(C(F)(F)F)nn1CC(=O)N1CCC(c2nc(C3OCc4ccc(C(F)(F)F)cc4CO3)cs2)CC1 (stereo not drawn) [Compound 1-16]
control value (Test 1) (Phytophthora infestans): 100 | control value (Test 2) [1]: 100 | control value (Test 3) (Plasmopara viticola): 100

Cc1ccc(C)c(CC(=O)N2CCC(c3nc(C4OCc5c(I)ccc(OS(C)(=O)=O)c5CO4)cs3)CC2)c1 (stereo not drawn) [Compound 2-40]
control value (Test 1) (Phytophthora infestans): 70 | control value (Test 2) [1]: 100 | control value (Test 3) (Plasmopara viticola): 100

COc1ccc([N+](=O)[O-])c2c1COC(c1csc(C3CCN(C(=O)Cn4nc(C(F)(F)F)cc4C)CC3)n1)OC2 (stereo not drawn) [Compound 1-46]
control value (Test 1) (Phytophthora infestans): 100 | control value (Test 2) [1]: 100 | control value (Test 3) (Plasmopara viticola): 100

COc1ccc(OS(C)(=O)=O)c2c1COC(c1csc(C3CCN(C(=O)Cn4nc(C(F)F)cc4C(F)F)CC3)n1)OC2 (stereo not drawn) [Compound 1-39, 4-[4-(6-methoxy-9-methylsulfonyloxy-1,5-dihydro-3H-2,4-benzodioxepin-3-yl)-2-thiazolyl]-1-[2-[3,5-bis(difluoromethyl)-1H-pyrazole-1-yl]acetyl]piperidine]
pest or weed control at 4 µg/mL (Phytophthora infestans): 100% | pest or weed control at 4 µg/mL [1]: 100% | pest or weed control at 4 µg/mL (Plasmopara viticola): 100%

O=C(Cn1nc(C(F)F)cc1C(F)F)N1CCC(c2nc(C3OCc4cccc(F)c4CO3)cs2)CC1 (stereo not drawn) [Compound 1-35]
control value (Test 1) (Phytophthora infestans): 100 | control value (Test 2) [1]: 100 | control value (Test 3) (Plasmopara viticola): 100

Cc1cc(OS(C)(=O)=O)c2c(c1C)COC(c1csc(C3CCN(C(=O)Cn4nc(C(F)(F)F)cc4C(F)(F)F)CC3)n1)OC2 (stereo not drawn) [Compound 1-122]
control value (Test 1) (Phytophthora infestans): 100 | control value (Test 2) [1]: 100 | control value (Test 3) (Plasmopara viticola): 100

CC(C)S(=O)(=O)Oc1cccc2c1COC(c1csc(C3CCN(C(=O)Cn4nc(C(F)F)cc4C(F)F)CC3)n1)OC2 (stereo not drawn) [Compound 1-53]
control value (Test 1) (Phytophthora infestans): 100 | control value (Test 2) [1]: 100 | control value (Test 3) (Plasmopara viticola): 100

O=C(CON=CC(F)(F)F)N1CCC(c2nc(C3OCc4c(F)ccc(F)c4CO3)cs2)CC1 [Compound 3-4]
control value (Test 1) (Phytophthora infestans): 100 | control value (Test 2) [1]: 100 | control value (Test 3) (Plasmopara viticola): 100

Cc1cc(C(F)(F)F)nn1CC(=O)N1CCC(c2nc(C3OCc4cccc([N+](=O)[O-])c4CO3)cs2)CC1 (stereo not drawn) [Compound 1-12]
control value (Test 1) (Phytophthora infestans): 100 | control value (Test 2) [1]: 100 | control value (Test 3) (Plasmopara viticola): 100

O=C(Cn1nc(C(F)F)cc1C(F)F)N1CCC(c2nc(C3OCc4ccc(F)cc4CO3)cs2)CC1 (stereo not drawn) [Compound 1-80]
control value (Test 1) (Phytophthora infestans): 100 | control value (Test 2) [1]: 100 | control value (Test 3) (Plasmopara viticola): 100

O=C(CON=CC(F)(F)F)N1CCC(c2nc(C3OCc4cccc(F)c4CO3)cs2)CC1 (stereo not drawn) [Compound 3-2]
control value (Test 1) (Phytophthora infestans): 100 | control value (Test 2) [1]: 100 | control value (Test 3) (Plasmopara viticola): 100

COc1ccc(Br)c2c1COC(c1csc(C3CCN(C(=O)Cc4cc(Cl)ccc4Cl)CC3)n1)OC2 (stereo not drawn) [Compound 2-25]
control value (Test 1) (Phytophthora infestans): 40 | control value (Test 2) [1]: 100 | control value (Test 3) (Plasmopara viticola): 100

O=C(Cn1nc(C(F)F)cc1C(F)F)N1CCC(c2nc(C3OCc4cccc(C=NO)c4CO3)cs2)CC1 (stereo not drawn) [Compound 1-145]
control value (Test 1) (Phytophthora infestans): 100 | control value (Test 2) [1]: 100 | control value (Test 3) (Plasmopara viticola): 100

Cc1cc(C(F)(F)F)nn1CC(=O)N1CCC(c2nc(C3(C)OCc4c(F)ccc(OS(C)(=O)=O)c4CO3)cs2)CC1 (stereo not drawn) [Compound 1-154]
control value (Test 1) (Phytophthora infestans): 90 | control value (Test 2) [1]: 100 | control value (Test 3) (Plasmopara viticola): 100

CS(=O)(=O)Oc1ccc(I)c2c1COC(c1csc(C3CCN(C(=O)Cn4nc(C(F)F)cc4C(F)F)CC3)n1)OC2 (stereo not drawn) [Compound 1-130]
control value (Test 1) (Phytophthora infestans): 100 | control value (Test 2) [1]: 100 | control value (Test 3) (Plasmopara viticola): 100

CS(=O)(=O)Oc1ccc(OS(C)(=O)=O)c2c1COC(c1csc(C3CCN(C(=O)Cn4nc(C(F)F)cc4C(F)F)CC3)n1)OC2 [Compound 1-146]
control value (Test 1) (Phytophthora infestans): 100 | control value (Test 2) [1]: 100 | control value (Test 3) (Plasmopara viticola): 100

CS(=O)(=O)Oc1ccc(Cl)c2c1COC(c1csc(C3CCN(C(=O)Cn4nc(C(F)(F)F)cc4C(F)(F)F)CC3)n1)OC2 (stereo not drawn) [Compound 1-118]
control value (Test 1) (Phytophthora infestans): 100 | control value (Test 2) [1]: 100 | control value (Test 3) (Plasmopara viticola): 100

CS(=O)(=O)Oc1c(F)ccc2c1COC(c1csc(C3CCN(C(=O)Cc4cc(Cl)ccc4Cl)CC3)n1)OC2 (stereo not drawn) [Compound 2-43, 4-[4-(7-fluoro-6-methylsulfonyloxy-1,5-dihydro-3H-2,4-benzodioxepin-3-yl)-2-thiazolyl]-1-[2-(2,5-dichlorophenyl)acetyl]piperidine]
pest or weed control at 4 µg/mL (Phytophthora infestans): 100% | pest or weed control at 4 µg/mL [1]: 100% | pest or weed control at 4 µg/mL (Plasmopara viticola): 100%

CS(=O)(=O)Oc1c(F)ccc2c1COC(c1csc(C3CCN(C(=O)Cn4nc(C(F)(F)F)cc4C(F)(F)F)CC3)n1)OC2 (stereo not drawn) [Compound 1-131, 4-[4-(7-fluoro-6-methylsulfonyloxy-1,5-dihydro-3H-2,4-benzodioxepin-3-yl)-2-thiazolyl]-1-[2-[3,5-bis(trifluoromethyl)-1H-pyrazole-1-yl]acetyl]piperidine]
pest or weed control at 4 µg/mL (Phytophthora infestans): 100% | pest or weed control at 4 µg/mL [1]: 100% | pest or weed control at 4 µg/mL (Plasmopara viticola): 100%

CO/C(=N\c1cc(C)ccc1C)N1CCC(c2nc(C3OCc4cccc(OS(C)(=O)=O)c4CO3)cs2)CC1 (stereo not drawn) [Compound 4-1, 4-[4-(6-methylsulfonyloxy-1,5-dihydro-3H-2,4-benzodioxepin-3-yl)-2-thiazolyl]-1-[(Z)-[(2,5-dimethylphenyl)imino](methoxy)methyl]piperidine]
pest or weed control at 4 µg/mL (Phytophthora infestans): 100% | pest or weed control at 4 µg/mL [1]: 100% | pest or weed control at 4 µg/mL (Plasmopara viticola): 100%

From patent US10104891B2 (priority 2014, dated 2018)
